melting point [°C] | SMILES
110 to 112 | Cn1cc(C(=O)Nc2ccccc2-c2cc(F)ccc2F)c(C(F)(F)F)n1
103 to 112 | Cc1c(-c2ccccc2)oc2c(C(=O)NCCCN3CCN(c4ccccc4OC(F)(F)F)CC3)cccc2c1=O
86 to 88 | CCN(CC)C(=O)n1cc(C(F)F)c(S(=O)(=O)c2cccc(Cl)c2)n1
112 to 116 | CNC(=O)N(C)c1nnc(SCc2cccc(F)c2)s1
50 | O=C(OCCCl)c1cccc(O)c1
248 to 250 | CC(C)n1nc(-c2sc(C(N)=O)nc2-c2cccc(F)c2)ccc1=O
186 to 187 | CCN(C(=O)c1cnc(N2CC(C)(C)NC2=O)nc1N)c1cccc(C(F)(F)F)c1
100 to 101 | CCCCCCCNC(=O)N(C)c1cccc(-c2ccc(CCC(=O)NO)cc2)c1
124 to 126 | O=Cc1ccc2c(c1I)OCO2
74 to 85 | Cc1cc(NSc2ccccc2[N+](=O)[O-])ccc1Oc1ncc(Cl)cn1
104 to 105 | O=C(Nc1cc(C(F)(F)F)cc(C(F)(F)F)c1)c1cnc(Cl)nc1Cl
112 to 114 | C/C(C=O)=C\c1ccc([N+](=O)[O-])cc1
69.5 to 71 | CONS(=O)(=O)c1ccc(Cl)c([N+](=O)[O-])c1
138 to 139 | CCOC(=O)N1CCN(C(C#N)c2ccc(OC)c(OC)c2OC)CC1 (stereo not given)
177 to 178 | Cc1oc(-c2ccccc2)nc1CCOc1ccc(CCC(=O)NC(N)=O)cc1
72 to 76 | COCCCc1cc(N(C)Cc2ccc(-c3ccc(C(F)(F)F)cc3)nc2)ccc1OCC(=O)O
133 to 134 | CCOC(=O)CN1C(=O)C2(COc3cc(F)c(F)cc32)c2c(Br)cccc21 (stereo not given)
223 to 224 | Cc1nn(C)c(O)c1C(=O)c1ccc(Cl)cc1[N+](=O)[O-]
125 to 126 | CN1CCC(C(=NNc2ccc(F)cc2)c2ccccc2F)CC1
113 to 116 | CCCCCCCCOc1cc(-c2cccc(Cl)c2)c(OCC(=O)O)c(-c2cccc(Cl)c2)c1
133 to 135 | O=Cc1ccc(OCC(F)(F)F)c(O)c1
86 to 87 | CNC(=S)N(C)Cc1cccnc1
104 to 107 | N[C@@H]1C[C@H]2c3ccccc3-c3cccc(c32)NC1=O (relative stereo)

melting point [°C] | SMILES
135 to 136 | COc1cc2c(cc1OC)-c1c(N3CCNCC3)nc3ccccc3c1C2=O
174 to 177 | O=C(O)c1cccc(-c2ccnc3c(C(=O)c4cccs4)cnn23)c1
236 | O=C(Nc1ccc2ccc(Cl)nc2n1)c1ccc(F)cc1
69 to 71 | COc1ccc(N)c(CCc2cc(OC)ccc2N)c1
84 to 85 | CC(=O)OCC(O)(CN(C)S(=O)(=O)c1cc(C)ccc1C)c1ccccc1 (stereo not given)
183 to 184 | CCc1nnc(/C=C/c2cn(-c3ccccc3)nc2OCc2ccc(OCc3nc(-c4ccco4)oc3C)c(OC)c2)o1
148 to 149 | CC(C)C[C@H](N)C(=O)NCCNC(=O)OCc1ccccc1
151 | N#CC(=NO)c1ccc(Cl)cc1Cl
68.5 to 70.5 | COc1cc(C(C)=O)ccc1OCCCCCl
133 to 134 | O=[N+]([O-])c1cccc(Oc2cccc3cccnc23)c1
189 to 191 | COc1ccccc1C1CCNC(N)=N1 (stereo not given)
125 to 126 | O=CN1CCN(c2ccnc(Cl)n2)CC1
206 | CCCC(CNc1cc(Cl)ccc1C(=O)O)C(=O)O (stereo not given)
84 | CCN(CC)C(=O)n1cc(C(=O)C2CSC(c3cccnc3)N2)c2ccccc21 (stereo not given)
170 to 172 | CCOC(=O)c1cc(-n2c(=O)cc[nH]c2=O)ccc1Cl
180 to 182 | O=C(O)C1CCc2c(c3ccccc3n2C(=O)c2cccs2)C1 (stereo not given)
99 to 102 | CNC(c1ccnc(F)c1)C(O)c1cccc(C(F)(F)F)c1 (stereo not given)
96 to 98 | O=C(CCCCCBr)Nc1ccc(C(F)(F)F)cc1
124 to 128 | COc1ccc(C=CC(=O)Nc2ccncc2)c2c1OC1(CCCC1)C2
277 to 278 | O=C(O)c1ccccc1C(=O)N1CCN(c2cc3c(cc2F)c(=O)c(C(=O)O)c2sccn23)CC1
99 to 101 | COC(=O)c1c(C)nc(C)c(C(=O)OC)c1-c1ccccc1[N+](=O)[O-]
106 to 108 | Cc1nscc1C(=O)NC1CC1
166 | CCOC(=O)c1cn(CC)c2cc(Cl)c(Br)cc2c1=O

melting point [°C] | SMILES
254 to 256 | O=C(O)C1C=Nc2c(cc(F)cc2[N+](=O)[O-])C1=O (stereo not given)
101 | O=C(/C=C/c1ccc(C(=O)Nc2cccc(Nc3nc(-c4cccnc4)cs3)c2)cc1)NO
86 to 87 | CCNC(=O)c1c(F)cccc1[Si](C)(C)C
150 | CSC(=NS(=O)(=O)c1ccccc1)Nc1ccc(C#N)cc1
165 to 167 | O=C(NO)C(=O)c1ccc(OCCOc2ccc3ccccc3c2)s1
177 to 178 | O=C(Nc1ccccc1)N1CCc2cc(S(=O)(=O)N3CCN(c4cccc(Cl)c4)CC3)ccc21
242 to 246 | CCn1cc(C(=O)O)c(=O)c2cc(F)c(-c3csc(CNC)n3)c(O)c21
248 to 249 | COC(=O)Cn1nnc(-c2ccc(C=Cc3ccc(-c4nc5ccccc5o4)cc3)cc2)c1C#N
102 | COC(=O)CCCc1cc2nc(Cl)ccc2n1S(=O)(=O)c1cc(OC)ccc1OC
237 to 242 | C=Cc1cnc(Nc2ccc(C#N)cc2)nc1Nc1c(C)cc(C)cc1C
135 to 138 | CC(=O)OCc1cc2c(Cl)ccc(-n3c(=O)cc(C(F)(F)F)n(C)c3=O)c2o1
191 to 194 | C=CCOC(=O)OCN1C(=O)C(c2cn(C)c3ccccc23)=C(c2cn(C)c3cc([N+](=O)[O-])ccc23)C1=O
60 to 62 | COc1ccc2c(c1O)C(=O)CC(c1ccc(F)cc1)=N2
160 to 163 | CN1CCN(CCCNc2sc(-c3cc[nH]n3)c3c2C(=O)CC(C)(C)C3)CC1
66 | C=CCNC(=O)NC(CCC)(CCC)CCC
112 to 113 | COCC(C)Oc1cc(Oc2ccc(S(C)(=O)=O)cc2)cc2cc(C3=NCC(CC(C)(C)O)S3)[nH]c12 (stereo not given)
144 | Clc1ccc2c(c1)Cc1cc(Cl)ccc1OCCOCCOCCOCCO2
142 to 145 | COC(=O)c1c(-c2nccn2C)c2cnc(N3CCC[C@H]3CO)nc2n(Cc2ccc(OC)c(Cl)c2)c1=O
114 to 116 | Cc1ccc(N=C=C2C=CC=CN2)c(C)c1[N+](=O)[O-]
82 to 87 | CC(=O)N1CCC(C(=O)c2cc(F)ccc2F)CC1
203 to 205 | CC1Cc2c(N3CCC(NC(=O)OC(C)(C)C)C3)c(F)cc3c(=O)[nH]c(=O)n1c23 (stereo not given)
245 to 246 | Cc1nc(N(C)c2ccc(Cl)cc2)sc1-c1ccnc(Nc2ccc(N3CCOCC3)cc2)n1
225 to 227 | Cc1cccc(-c2c(CC(=O)Nc3ccc(F)cc3C(F)(F)F)c(=O)oc3cc4c(cc23)CCC4O)c1 (stereo not given)

melting point [°C] | SMILES
160 to 164 | Cc1cc(=O)n2c3c(cc(C(O)(C(F)(F)F)C(F)(F)Cl)cc13)CC2 (stereo not given)
225 to 227 | COC(=O)c1sc2c(c1N=CN(C)C)c1ccccc1c(=O)n2-c1ccccc1
190 to 192 | COc1ccc2c(c1OCc1ccc(C(=O)O)cc1)CC(C(=O)O)N(C(=O)C(c1ccccc1)c1ccccc1)C2 (racemic)
300 | Cc1cc(=O)[nH]c2c3c(cc(O)c12)OC(C)C(C)C3=O (stereo not given)
66 to 67 | CSc1cnc(Cl)c(Cl)c1
164 to 165 | COc1cc2sc(=O)n(C(C)=O)c2cc1OC
220 to 222 | O=C(Nc1cccc(-c2ccnc3c(C(=O)c4ccco4)cnn23)c1)c1ccccc1
70 to 73 | CC1(C)C(=O)NCCN1C(=O)C(N)Cc1ccccc1 (stereo not given)
194 to 195 | COc1cc(N2C(=O)c3ccccc3C2=O)ccc1-c1ccc(Cl)s1
108 | Cc1ccc(Cn2nc(Br)c([N+](=O)[O-])c2NCc2ccccc2)cc1
142 to 143 | O=C1NCC(Cc2ccccc2C(F)(F)F)O1 (stereo not given)
150 to 153 | NS(=O)(=O)c1ccc(N2CCN(Cc3ccc4c(c3)NC(=O)CO4)CC2)cc1
275 to 276 | O=c1[nH]c2ccc(Br)cc2c(-c2ccccc2)[n+]1[O-]
157 | Cc1ccc(C(C)NC(=O)C2CC(=O)c3cc(F)ccc3O2)cc1 (single isomer, unassigned; (+))
240 to 242 | Oc1ccc(-c2ncc3ncc(-c4cccs4)cc3n2)cc1
75.5 to 77 | CCOCCn1c(CCl)nc2ccccc21
80.3 to 80.5 | CCCCCCc1ccc(-c2ncc(C#N)c(Cl)n2)cc1
206 to 207 | COCCN1CCc2ccc(Nc3ncc(Cl)c(Nc4ccc(OC)c5c4C(=O)N(C)C5)n3)cc2CC1
191 | CCOC(=O)C1=C(N)NC(N)=C(C(=O)OCC)C1c1ccccc1C(F)(F)F
271 | O=C(C=Cc1ccccc1)NNC(=O)c1ccccc1O
158 to 160 | CCOC(=O)c1[nH]c2ccc(C)cc2c1Sc1ccc(Cl)cc1
272 to 274 | O=c1c2c(CCC(F)(F)F)n[nH]c2c2cccnc2n1-c1ccccc1
60 to 64 | COc1ccc(Oc2c(C)cc(O)cc2C)cc1C(C)C

SMILES | melting point [°C]
O=C(NC1N=C(c2ccccc2F)c2ccccc2NC1=S)c1ccc(Cl)cc1 (stereo not given) | 156 to 158
CC(=O)Nc1ccc2c(c1)C(c1ccccc1F)=NCc1cnc(C)n1-2 | 326 to 331
N#Cc1ccc2[nH]cc(CCN)c2c1 | 102 to 105
O=C(c1cccc(O)c1)c1nn(C2CCCC2)c2c(C(F)(F)F)cccc12 | 152
CCOC(=O)CNC(=O)c1cc2c(s1)-n1c(C)nnc1CN=C2c1ccccc1Cl | 251 to 252
CCCCC1(N(C)C)CCC(c2[nH]c3ccccc3c2Cc2ccccc2)CC1 (stereo not given) | 72 to 78
O=[N+]([O-])c1nccn1CC(O)CN1C2CCCCCCC21 (stereo not given) | 120 to 122
CC(C)(C)c1ccc(N2CCNCC2)cc1 | 48 to 52

— a melting point compilation (Tetko et al.; mined from patent text by program, amines drawn as free bases though some values may be those of a salt)
